# In patent US20230255953A1, “USE OF ROLUPERIDONE IN PREVENTING RELAPSE IN SCHIZOPHRENIA PATIENTS” (Minerva Neurosciences, Inc., priority 2022, published 2023):
# System: patients with negative symptoms of schizophrenia
# Assay: Study #1 (MIN-101C03): Brief Assessment of Cognition in Schizophrenia
# Type: in vivo, human
# Set-up: Change from Baseline LS Mean: Brief Assessment of Cognition in Schizophrenia Total Score / Change from Baseline LS Mean: Brief Assessment of Cognition in Schizophrenia Total Verbal Fluency: unit not given here
# Conditions: Week 12 DB, ITT
# Source text: Phase 2b Study #1 (also referred to herein as “MIN-101C03”) was a Phase 2b, double-blind (“DB”), placebo-controlled, randomized, multicenter 12-week study to evaluate the efficacy, safety, and tolerability of Roluperidone in patients ≥18 years to ≤60 years with negative symptoms of schizophrenia, followed by a 24-week open-label (“OL”) extension. The primary objective of the study was to evaluate the efficacy of Roluperidone compared to placebo in improving the negative symptoms of schizophrenia as measured by the change from Baseline in the PANSS negative factor score of the PSM (“PANSS PSM”) over 12 weeks of treatment.
# The study consisted of a pretreatment screening period of up to 28 days (including washout), a 12-week, DB, placebo-controlled period, and a 24-week OL period. Eligible patients (who were symptomatically stable for at least 3 months and had scores of at least 20 on the PANSS negative subscale score) were randomized in a 1:1:1 ratio to receive oral Roluperidone (a modified-release, “MR”, formulation) 32 mg QD, Roluperidone 64 mg QD, or placebo for 12 weeks. […] During the 24-week, OL treatment extension period, patients who were initially randomized to Roluperidone 32 mg or 64 mg continued on the same dose, while patients who were initially randomized to placebo crossed over to Roluperidone 32 mg or 64 mg in a 1:1 ratio.
substance,measurement,setting,value
"1H-Isoindol-1-one,2-[ [1-[2-(4-fluorophenyl)-2-oxoethyl]-4-piperidinyl]methyl]-2,3-dihydro-, hydrochloride, hydrate (1:1:2) [Roluperidone]",Change from Baseline LS Mean: Brief Assessment of Cognition in Schizophrenia Total Score,32 mg QD,23.8
same,Change from Baseline LS Mean: Brief Assessment of Cognition in Schizophrenia Total Verbal Fluency,32 mg QD,5.76
same,Effect Size vs Placebo: Brief Assessment of Cognition in Schizophrenia Total Score,32 mg QD,0.43
same,Effect Size vs Placebo: Total Verbal Fluency,32 mg QD,0.51
same,Change from Baseline LS Mean: Brief Assessment of Cognition in Schizophrenia Total Score,64 mg QD,14.9
same,Change from Baseline LS Mean: Brief Assessment of Cognition in Schizophrenia Total Verbal Fluency,64 mg QD,4.37
same,Effect Size vs Placebo: Brief Assessment of Cognition in Schizophrenia Total Score,64 mg QD,0.12
same,Effect Size vs Placebo: Total Verbal Fluency,64 mg QD,0.36
